One experiment addresses Mcl-1 (Homo sapiens (Human), UniProt Q07820). Briefly: Fluorescence polarization anisotropy (FPA) competition assay, FITC-Bak or FITC-Bim BH3 peptide. The format is binding. The following applies: read-out: Ki for Inhibition of Mcl-1 by FPA assay. A general note: In fluorescence polarisation assays a small probe gives low polarisation when free and higher when bound to something large.

Experiment [1] concerns H929 human cancer cell lines. The experiment in a line: Cellular viability / proliferation (Cell TiterGlo, 72 h). The format is cell-based. A digest of the protocol: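 Cells were seeded at 1,000 cells/well in medium with 10% FBS and dosed 24 h later with a 2-fold serial dilution of compound (top concentration 50 μM, final DMSO <1%).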
Where [2] appears, read: Homo sapiens, NCI-H929, 72 h, read-out: GI50 on cellular proliferation of H929 human cancer cell lines, H929 cells, 72 h, Cell TiterGlo, 10% FBS.

Read-outs that look alike come from different tables or passages of the source.

Sequence of Mcl-1 (Q07820 172-327): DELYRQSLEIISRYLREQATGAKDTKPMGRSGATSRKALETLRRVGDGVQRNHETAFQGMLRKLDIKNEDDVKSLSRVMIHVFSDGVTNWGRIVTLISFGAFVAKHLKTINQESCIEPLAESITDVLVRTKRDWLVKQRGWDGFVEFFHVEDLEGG

What is called Ki is the equilibrium dissociation constant of an inhibitor or competing ligand from its target. Consider `Cc1cc(OCCCc2c3n(c4c(-c5c(C)nn(CC(=O)O)c5C)c(Cl)ccc24)CCCN(c2cccc4cccnc24)C3=O)cc(C)c1Cl` [Example 144, 2-(4-(8-Chloro-11-(3-(4-chloro-3,5-dimethylphenoxy)propyl)-1-oxo-2-(quinolin-8-yl)-2,3,4,5-tetrahydro-1H-[1,4]diazepino[1,2-a]indol-7-yl)-3,5-dimethyl-1H-pyrazol-1-yl)acetic acid], for which, on Mcl-1, the Ki was less than 1 nM. The GI50 in experiment [1] (setting [2]) was 6500 nM.
As to `Cc1cc(OCCCc2c3n(c4c(-c5c(C)nn(C)c5C)c(Cl)ccc24)[C@H](C)CN(c2cccc4c2c(C(=O)O)cn4C)C3=O)cc(C)c1Cl` [Example 182, 4-[(4R)-7-chloro-10-[3-(4-chloro-3,5-dimethyl-phenoxy)propyl]-4-methyl-1-oxo-6-(1,3,5-trimethylpyrazol-4-yl)-3,4-dihydropyrazino[1,2-a]indol-2-yl]-1-methyl-indole-3-carboxylic acid], on Mcl-1, the inhibition constant Ki is less than 1 nM. In addition, the GI50 in experiment [1] (setting [2]) was 1500 nM.
Taken in the same sequence, the figures for `Cc1cc(OCCCc2c3n(c4c(-c5c(C)ncnc5C)c(Cl)ccc24)[C@H](C)CN(c2cn(C)c4ccc(C(N)=O)cc24)C3=O)cc(C)c1Cl` [Example 269, 3-[(4R)-7-chloro-10-[3-(4-chloro-3,5-dimethyl-phenoxy)propyl]-6-(4,6-dimethylpyrimidin-5-yl)-4-methyl-1-oxo-3,4-dihydropyrazino[1,2-a]indol-2-yl]-1-methyl-indole-5-carboxamide] were 7.4 nM and 760 nM.
For `Cc1cc(OCCCc2c3n(c4c(-c5c(C)ncnc5C)c(Cl)ccc24)[C@H](C)CN(c2ccc(C(=O)O)c4cccnc24)C3=O)cc(C)c1Cl` [Example 224, 8-[(4R)-7-chloro-10-[3-(4-chloro-3,5-dimethyl-phenoxy)propyl]-6-(4,6-dimethylpyrimidin-5-yl)-4-methyl-1-oxo-3,4-dihydropyrazino[1,2-a]indol-2-yl]quinoline-5-carboxylic acid] the same measures were less than 1 nM and 2500 nM.
For `COc1ccc(N2C[C@@H](C)n3c(c(CCCOc4cc(C)c(Cl)c(C)c4)c4ccc(Cl)c(-c5c(C)nn(C)c5C)c43)C2=O)c2c1cc(C(N)=O)n2Cc1ccccn1` [Example 466, (R)-7-(7-Chloro-10-(3-(4-chloro-3,5-dimethylphenoxy)propyl)-4-methyl-1-oxo-6-(1,3,5-trimethyl-1H-pyrazol-4-yl)-3,4-dihydropyrazino[1,2-a]indol-2(1H)-yl)-4-methoxy-1-(pyridin-2-ylmethyl)-1H-indole-2-carboxamide] the same measures were 1.8 nM and 300 nM.
For `Cc1cc(OCCCc2c3n(c4c(-c5c(C)nn(C)c5C)c(Cl)ccc24)[C@H](C)CN(c2cccc4cc(C(=O)O)n(Cc5ccccn5)c24)C3=O)cc(C)c1Cl` [Example 249, 7-[(4R)-7-chloro-10-[3-(4-chloro-3,5-dimethyl-phenoxy)propyl]-4-methyl-1-oxo-6-(1,3,5-trimethylpyrazol-4-yl)-3,4-dihydropyrazino[1,2-a]indol-2-yl]-1-(2-pyridylmethyl)indole-2-carboxylic acid], on Mcl-1, the inhibitory constant (Ki) is less than 1 nM. Further, the GI50 in experiment [1] (read-out: GI50 on cellular proliferation of H929 human cancer cell lines, H929 cells, 72 h, Cell TiterGlo, 10% FBS) was found to be 490 nM.
In the case of `Cc1cc(OCCCc2c3n(c4c(-c5c(C)nn(C)c5C)c(Cl)ccc24)[C@H](C)CN(c2ccnc4c2cc(C(=O)O)n4C)C3=O)cc(C)c1Cl` [Example 169, (R)-4-(7-chloro-10-(3-(4-chloro-3,5-dimethylphenoxy)propyl)-4-methyl-1-oxo-6-(1,3,5-trimethyl-1H-pyrazol-4-yl)-3,4-dihydropyrazino[1,2-a]indol-2(1H)-yl)-1-methyl-1H-pyrrolo[2,3-b]pyridine-2-carboxylic acid], on Mcl-1, the Ki was less than 1 nM. The GI50 in experiment [1] (setting [2]) was 2600 nM.
For `Cc1cc(OCCCc2c3n(c4c(-c5c(C)nn(C)c5C)c(Cl)ccc24)[C@H](C)CN(c2cn(C)c4ccc(-c5cccnn5)cc24)C3=O)cc(C)c1Cl` [Example 424, (R)-7-Chloro-10-(3-(4-chloro-3,5-dimethylphenoxy)propyl)-4-methyl-2-(1-methyl-5-(pyridazin-3-yl)-1H-indol-3-yl)-6-(1,3,5-trimethyl-1H-pyrazol-4-yl)-3,4-dihydropyrazino[1,2-a]indol-1(2H)-one] the same measures were 2.6 nM and 1300 nM.
Consider `Cc1cc(OCCCc2c3n(c4c(-c5c(C)nn(C)c5C)c(Cl)ccc24)CCCN(c2ccc4c(C(=O)O)cn(C)c4c2)C3=O)cc(C)c1Cl` [Example 81, 6-(8-Chloro-11-(3-(4-chloro-3,5-dimethylphenoxy)propyl)-1-oxo-7-(1,3,5-trimethyl-1H-pyrazol-4-yl)-4,5-dihydro-1H-[1,4]diazepino[1,2-a]indol-2(3H)-yl)-1-methyl-1H-indole-3-carboxylic acid], for which the Ki on Mcl-1 was 2.4 nM. Also, the GI50 in experiment [1] (setting [2]) was determined as 2900 nM.
For `Cc1cc(OCCCc2c3n(c4c(-c5c(C)nn(C)c5C)c(Cl)ccc24)[C@H](C)CN(c2cn(C)c4ccc(C(=O)Nc5cccnc5)cc24)C3=O)cc(C)c1Cl` [Example 291, 3-[(4R)-7-chloro-10-[3-(4-chloro-3,5-dimethyl-phenoxy)propyl]-4-methyl-1-oxo-6-(1,3,5-trimethylpyrazol-4-yl)-3,4-dihydropyrazino[1,2-a]indol-2-yl]-1-methyl-N-(3-pyridyl)indole-5-carboxamide], the Ki at Mcl-1 was 1.1 nM. Also, in experiment [1] (setting [2]), the GI50 amounted to 1000 nM.
Taken in the same sequence, the figures for `Cc1cc(OCCCc2c3n(c4c(-c5c(C)nn(C)c5C)c(Cl)ccc24)[C@H](C)CN(c2cccc4nn(C)c(C(=O)O)c24)C3=O)cc(C)c1Cl` [Example 132, 4-[(4R)-7-chloro-10-[3-(4-chloro-3,5-dimethyl-phenoxy)propyl]-4-methyl-1-oxo-6-(1,3,5-trimethylpyrazol-4-yl)-3,4-dihydropyrazino[1,2-a]indol-2-yl]-2-methyl-indazole-3-carboxylic acid] were less than 1 nM and 840 nM.
Taken in the same sequence, the figures for `Cc1cc(N2C[C@@H](C)n3c(c(CCCOc4cc(C)c(Cl)c(C)c4)c4ccc(Cl)c(-c5c(C)nn(C)c5C)c43)C2=O)c2cc(C(=O)O)n(C)c2c1` [Example 317, (R)-4-(7-Chloro-10-(3-(4-chloro-3,5-dimethylphenoxy)propyl)-4-methyl-1-oxo-6-(1,3,5-trimethyl-1H-pyrazol-4-yl)-3,4-dihydropyrazino[1,2-a]indol-2(1H)-yl)-1,6-dimethyl-1H-indole-2-carboxylic acid] were less than 1 nM and 720 nM.
Consider `Cc1cc(OCCCc2c3n(c4c(-c5c(C)nn(C)c5C)c(Cl)ccc24)[C@H](C)CN(c2nccc4cc(C(N)=O)ccc24)C3=O)cc(C)c1Cl` [Example 375, (R)-1-(7-Chloro-10-(3-(4-chloro-3,5-dimethylphenoxy)propyl)-4-methyl-1-oxo-6-(1,3,5-trimethyl-1H-pyrazol-4-yl)-3,4-dihydropyrazino[1,2-a]indol-2(1H)-yl)isoquinoline-6-carboxamide], for which, on Mcl-1, the inhibition constant (Ki) is 10 nM. In addition, in experiment [1] (setting [2]), the GI50 stood at 2500 nM.
With `Cc1cc(OCCCc2c3n(c4c(-c5c(C)ncnc5C)c(Cl)ccc24)[C@H](C)CN(c2nn(C)c4cccc(C(=O)O)c24)C3=O)cc(C)c1Cl` [Example 273, 3-[(4R)-7-chloro-10-[3-(4-chloro-3,5-dimethyl-phenoxy)propyl]-6-(4,6-dimethylpyrimidin-5-yl)-4-methyl-1-oxo-3,4-dihydropyrazino[1,2-a]indol-2-yl]-1-methyl-indazole-4-carboxylic acid], on Mcl-1, the Ki was less than 1 nM. The GI50 in experiment [1] (setting [2]) was determined as 4100 nM.
For `Cc1cc(OCCCc2c3n(c4c(-c5c(C)nn(C)c5C)c(Cl)ccc24)[C@H](C)CN(c2cc(C(=O)O)cc4c2OCCO4)C3=O)cc(C)c1Cl` [Example 26, (R)-8-(7-chloro-10-(3-(4-chloro-3,5-dimethylphenoxy)propyl)-4-methyl-1-oxo-6-(1,3,5-trimethyl-1H-pyrazol-4-yl)-3,4-dihydropyrazino[1,2-a]indol-2(1H)-yl)-2,3-dihydrobenzo[b][1,4]dioxine-6-carboxylic acid] the same measures were 1.3 nM and 830 nM.
Taken in the same sequence, the figures for `Cc1cc(OCCCc2c3n(c4c(-c5c(C)ncnc5C)c(Cl)ccc24)[C@H](C)CN(c2cn(C)c4ccc(C(=O)O)cc24)C3=O)cc(C)c1Cl` [Example 177, 3-[(4R)-7-chloro-10-[3-(4-chloro-3,5-dimethyl-phenoxy)propyl]-6-(4,6-dimethylpyrimidin-5-yl)-4-methyl-1-oxo-3,4-dihydropyrazino[1,2-a]indol-2-yl]-1-methyl-indole-5-carboxylic acid] were less than 1 nM and 270 nM.
For `Cc1cc(OCCCc2c3n(c4c(-c5c(C)ncnc5C)c(Cl)ccc24)[C@H](C)CN(c2cccc4c2c(C(=O)O)cn4C)C3=O)cc(C)c1Cl` [Example 252, 4-[(4R)-7-chloro-10-[3-(4-chloro-3,5-dimethyl-phenoxy)propyl]-6-(4,6-dimethylpyrimidin-5-yl)-4-methyl-1-oxo-3,4-dihydropyrazino[1,2-a]indol-2-yl]-1-methyl-indole-3-carboxylic acid], the Ki on Mcl-1 was 1.3 nM. Also, the GI50 in experiment [1] (setting [2]) turned out to be 2000 nM.
For `Cc1cc(OCCCc2c3n(c4c(-c5c(C)nn(C)c5C)c(Cl)ccc24)[C@H](C)CN(c2cccc4c(C(=O)O)c(C)n(C)c24)C3=O)cc(C)c1Cl` [Example 417, (R)-7-(7-Chloro-10-(3-(4-chloro-3,5-dimethylphenoxy)propyl)-4-methyl-1-oxo-6-(1,3,5-trimethyl-1H-pyrazol-4-yl)-3,4-dihydropyrazino[1,2-a]indol-2(1H)-yl)-1,2-dimethyl-1H-indole-3-carboxylic acid], the inhibition constant Ki at Mcl-1 was found to be 1.3 nM. The GI50 in experiment [1] (setting [2]) turned out to be 340 nM.

Source of the values: US11596639B2, “Substituted indole Mcl-1 inhibitors” (Vanderbilt University, priority 2016, dated 2023).
